Like-named read-outs stand apart in the source and are kept apart here.

The target in one experiment is T1, HDAC7 (Homo sapiens, UniProt Q8WUI4).
T1 sequence (Q8WUI4 1-952): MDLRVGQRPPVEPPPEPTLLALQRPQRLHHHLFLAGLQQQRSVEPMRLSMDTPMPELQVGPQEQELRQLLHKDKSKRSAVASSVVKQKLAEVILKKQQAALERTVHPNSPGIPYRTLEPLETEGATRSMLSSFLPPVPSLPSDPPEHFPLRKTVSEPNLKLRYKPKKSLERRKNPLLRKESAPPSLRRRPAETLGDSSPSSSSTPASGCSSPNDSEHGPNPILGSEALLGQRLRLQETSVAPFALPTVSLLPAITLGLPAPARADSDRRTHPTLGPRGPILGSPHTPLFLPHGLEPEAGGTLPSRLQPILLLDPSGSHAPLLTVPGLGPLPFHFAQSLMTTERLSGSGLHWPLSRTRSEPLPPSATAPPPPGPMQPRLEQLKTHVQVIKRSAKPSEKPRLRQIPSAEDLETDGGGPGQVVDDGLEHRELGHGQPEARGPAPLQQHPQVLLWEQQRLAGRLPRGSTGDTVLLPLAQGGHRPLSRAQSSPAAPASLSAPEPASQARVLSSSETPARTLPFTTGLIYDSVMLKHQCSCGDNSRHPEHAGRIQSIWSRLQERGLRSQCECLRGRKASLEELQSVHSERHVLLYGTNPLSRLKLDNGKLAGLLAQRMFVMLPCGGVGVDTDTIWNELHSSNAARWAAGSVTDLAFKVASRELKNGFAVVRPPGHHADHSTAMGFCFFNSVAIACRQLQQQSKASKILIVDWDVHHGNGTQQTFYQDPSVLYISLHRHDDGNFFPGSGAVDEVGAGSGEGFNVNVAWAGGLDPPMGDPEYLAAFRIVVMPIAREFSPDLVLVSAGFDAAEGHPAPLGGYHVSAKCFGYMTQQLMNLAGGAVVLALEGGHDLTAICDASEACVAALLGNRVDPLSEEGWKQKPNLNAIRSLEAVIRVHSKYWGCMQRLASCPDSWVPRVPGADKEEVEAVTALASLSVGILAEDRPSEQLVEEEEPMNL
Nature of the experiment: HDAC biochemical activity measurement (fluorescent substrate deacetylation).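 Further: fluorogenic deacetylation assay using acetyl-lysine substrate at 20 µM, enzyme and compound incubated 30 min at 37 °C, then developer added, fluorescence read at 360/460 nm.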 The settings on record: HDAC7; 37° C. 30 minutes.

The subject of experiment [1] is A549 (human lung cancer cells). Nature of the experiment: MTT cancer cell growth inhibition. In kind it is cell-based. Conditions: Homo sapiens, A549, 72 h, MTT, 72 hours incubation, read-out: GI50 A54. The method in brief:
(§1)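 72 h exposure, final drug 10^−5–10^−10 M, triplicate wells; 1500 cells/well plated the day before; medium DMEM or 1640 + 10% FBS; 37° C./5% CO2. MTT (5 mg/ml stock) 4 h, DMSO solubilisation, A570 → % viability → GI50.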

The subject of experiment [2] is BGC-823 (human gastric cancer cells). Nature of the experiment: MTT cancer cell growth inhibition. Conditions: Homo sapiens, BGC-823, 72 h, MTT, 72 hours incubation, read-out: GI50 BG. In kind it is cell-based. The essentials: as §1
Experiment [3] relates to Bel-7402 (human hepatoma cells). The experiment in a line: MTT cancer cell growth inhibition. The experiment is classed as cell-based. Conditions: Homo sapiens, Bel-7402, 72 h, MTT, 72 hours incubation, Bel-7402 cells; read-out: GI50 Bel-7402. The method in brief: as §1
For experiment [4], the system named is DU145 (human prostate cancer cells). The experiment in a line: MTT cancer cell growth inhibition. In kind it is cell-based. The settings on record: Homo sapiens, DU-145, 72 h, MTT, 72 hours incubation, read-out: GI50 Du1. The method in brief: as §1
For experiment [5], the system named is H1975 (non-small cell lung adenocarcinoma). Nature of the experiment: MTT cancer cell growth inhibition. In kind it is cell-based. Conditions: Homo sapiens, NCI-H1975, 72 h, MTT, 72 hours incubation, H1975 cells; read-out: GI50 H1975. The method in brief:
as §1

The subject of experiment [6] is HCC827 (human non-small cell lung cancer cells). Nature of the experiment: MTT cancer cell growth inhibition. The experiment is classed as cell-based. The settings on record: Homo sapiens, HCC827, 72 h, MTT, 72 hours incubation, HCC827 cells; read-out: GI50 HCC827. The essentials: as §1
The subject of experiment [7] is HT1080 (human fibrosarcoma cells). Nature of the experiment: MTT cancer cell growth inhibition. In kind it is cell-based. Conditions: Homo sapiens, HT-1080, 72 h, MTT, 72 hours incubation, read-out: GI50 HT1. The method in brief: as §1
Experiment [8] relates to Hela (human cervical cancer cells). The experiment in a line: MTT cancer cell growth inhibition. In kind it is cell-based. The settings on record: Homo sapiens, HeLa, 72 h, MTT, 72 hours incubation, read-out: GI50 Hela. The essentials:
as §1

Experiment [9] concerns Huh-7 (human hepatoma cells). Nature of the experiment: MTT cancer cell growth inhibition. In kind it is cell-based. Conditions: Homo sapiens, Huh-7, 72 h, MTT, 72 hours incubation, Huh-7 cells; read-out: GI50 Huh-7. The essentials:
as §1

For experiment [10], the system named is K562 (human leukemia cells). Nature of the experiment: MTT cancer cell growth inhibition. The experiment is classed as cell-based. Conditions: Homo sapiens, K562, 72 h, MTT, 72 hours incubation, K562 cells; read-out: GI50 K562. The essentials:
as §1

For experiment [11], the system named is KBM-5 (human chronic myelogenous leukemia). Nature of the experiment: MTT cancer cell growth inhibition. The experiment is classed as cell-based. Conditions: Homo sapiens, KBM5, 72 h, MTT, 72 hours incubation, KBM-5 cells; read-out: GI50 KBM-5. The method in brief: as §1
Experiment [12] relates to KBM5-T315I (human chronic myelogenous leukemia). Nature of the experiment: MTT cancer cell growth inhibition. The experiment is classed as cell-based. The settings on record: Homo sapiens, 72 h, MTT, 72 hours incubation, KBM5-T315I cells; read-out: GI50 KBM5-T315I. The essentials: as §1
Experiment [13] relates to MCF-7 (human breast cancer cells). Nature of the experiment: MTT cancer cell growth inhibition. The experiment is classed as cell-based. Conditions: Homo sapiens, MCF7, 72 h, 72 hours incubation, read-out: GI50 MCF. The essentials:
as §1

In experiment [14] the test system is MDA-MB-231 (breast cancer cells). The experiment in a line: MTT cancer cell growth inhibition. The experiment is classed as cell-based. Conditions: Homo sapiens, MDA-MB-231, 72 h, read-out: GI50 MDA-MB-231, MTT, 72 hours incubation, MDA-MB-231 cells. The essentials: as §1
Experiment [15] deals with MOLT-4 (human acute lymphoblastic leukemia cells). Nature of the experiment: MTT cancer cell growth inhibition. The experiment is classed as cell-based. Conditions: Homo sapiens, MOLT-4, 72 h, MTT, 72 hours incubation, read-out: GI50 Mol. The essentials: as §1
Experiment [16] has as its system N-87 (human gastric cancer cells). Nature of the experiment: MTT cancer cell growth inhibition. In kind it is cell-based. Conditions: Homo sapiens, 72 h, MTT, 72 hours incubation, N-87 cells; read-out: GI50 N-87. The essentials: as §1
Experiment [17] has as its system PANC-1 (Pac-1, human pancreatic cancer cells). Nature of the experiment: MTT cancer cell growth inhibition. The experiment is classed as cell-based. Conditions: Homo sapiens, PANC-1, 72 h, MTT, 72 hours incubation, read-out: GI50 PAN. The method in brief: as §1
Experiment [18] deals with SGC-7901 (human gastric cancer cells). Nature of the experiment: MTT cancer cell growth inhibition. The experiment is classed as cell-based. Conditions: Homo sapiens, SGC-7901, 72 h, MTT, 72 hours incubation, SGC-7901 cells; read-out: GI50 SGC-7901. The method in brief:
as §1

The test system of experiment [19] is U937 (human leukemia cells). Nature of the experiment: MTT cancer cell growth inhibition. In kind it is cell-based. Conditions: Homo sapiens, U-937, 72 h, MTT, 72 hours incubation, read-out: GI50 U93. The method in brief: as §1
Experiment [20] concerns lncap (prostate cancer cells). The experiment in a line: MTT cancer cell growth inhibition. The settings on record: Homo sapiens, LNCaP, 72 h, MTT, 72 hours incubation, read-out: GI50 lnca. The experiment is classed as cell-based. The method in brief:
as §1

With `C/C=C1\NC(=O)c2nc(ccc2F)CNC(=O)C[C@@H](/C=C/CCS)OC(=O)[C@H](Cc2cccc3ccccc23)NC1=O` [Compound 124], the “IC50 HDAC7” value against HDAC7 is “no activity”. Further, the GI50 (commonly the concentration at which growth is held to half of that of the control) is 50 nM in experiment [1]; 30 nM in experiment [2]; 72 nM in experiment [3]; 20 nM in experiment [4]; 28 nM in [5]; 35 nM in experiment [6]. For the same molecule, the GI50 in experiment [7] came out at 30 nM; in experiment [8], 30 nM; in [9], 16 nM; in experiment [10], 76 nM; in experiment [11], 57 nM; in [12], 15 nM. For the same molecule, the GI50 in experiment [13] is 30 nM; in experiment [14], 51 nM; in experiment [15], 50 nM; in experiment [16] it was 45 nM; in [17], 690 nM; in [18], 42 nM. Moreover, the GI50 in [19] worked out at 100 nM; in experiment [20], 70 nM.

`C=C1NC(=O)c2nc(ccc2SC)CNC(=O)C[C@@H](/C=C/CCSC(C)=O)OC(=O)[C@H](C(C)C)NC1=O` [Compound 204]: the “IC50 HDAC7” value against HDAC7 is given as “no activity”. Further, the GI50 in [1] (A549 cells) was found to be 30 nM; in experiment [2] (BGC-823 cells), 20 nM; in experiment [3], 36 nM; in [4] (DU145 cells) it was 50 nM; in experiment [5], 67 nM; in experiment [6], 37 nM. In addition, the GI50 in experiment [7] (HT1080 cells) amounted to 30 nM; in [8] (Hela cells), 60 nM; in [9], 83 nM; in experiment [10], 28 nM; in experiment [11] it was 63 nM; in experiment [12], 19 nM. The GI50 came to 30 nM in [13] (MCF-7 cells); 56 nM in experiment [14]; 40 nM in [15] (MOLT-4 cells); 28 nM in experiment [16]; 20 nM in [17] (PANC-1 cells); 73 nM in experiment [18]. Also, the GI50 in experiment [19] (U937 cells) is 20 nM; in experiment [20] (lncap cells), 50 nM.

For the molecule `C/C=C1\NC(=O)c2nc(ccc2SC)CNC(=O)C[C@@H](/C=C/CCS)OC(=O)[C@H](C(C)C)NC1=O` [Compound 226], on HDAC7, the “IC50 HDAC7” value is listed as “no activity”. Besides, the GI50 is 60 nM in experiment [1] (A549 cells); 50 nM in [2] (BGC-823 cells); 31 nM in experiment [3]; 30 nM in experiment [4] (DU145 cells); 37 nM in experiment [5]; 33 nM in experiment [6]. Besides, the GI50 in [7] (HT1080 cells) came out at 20 nM; in experiment [8] (Hela cells) it was 90 nM; in [9] it was 68 nM; in experiment [10], 61 nM; in [11], 75 nM; in experiment [12], 65 nM. Besides, the GI50 in [13] (MCF-7 cells) is 20 nM; in [14], 34 nM; in experiment [15] (MOLT-4 cells), 30 nM; in [16] it was 35 nM; in experiment [17] (PANC-1 cells) it was 20 nM; in experiment [18], 23 nM. The results for the GI50 in [19] (U937 cells) and in experiment [20] (lncap cells) were 40 nM and 30 nM, respectively.

Turning to `C/C=C1\NC(=O)c2nc(ccc2F)CNC(=O)C[C@@H](/C=C/CCSC(=O)CCC)OC(=O)[C@H](C(C)C)NC1=O` [Example 42], the “IC50 HDAC7” value at HDAC7 is “no activity”. Also, the GI50 in experiment [1] is 40 nM; in [2], 30 nM; in experiment [3] it was 55 nM; in [4], 100 nM; in experiment [5], 35 nM; in experiment [6], 35 nM. For the same molecule, the GI50 in experiment [7] stood at 40 nM; in experiment [8], 50 nM; in [9], 19 nM; in [10], 57 nM; in [11], 46 nM; in experiment [12], 53 nM. The GI50 in experiment [13] came out at 100 nM; in experiment [14], 35 nM; in experiment [15] it was 80 nM; in experiment [16] it was 84 nM; in [17] it was 40 nM; in experiment [18], 32 nM. The GI50 was found to be 70 nM in [19] and 50 nM in experiment [20].

For the origin of these results see patent US10065990B2, “Cyclic peptide compound, and preparation method, pharmaceutical composition and use thereof” (HANGZHOU GUANYU BIO-MEDICAL CO., LTD, priority 2013, dated 2018).
